The text below walks through data of BindingDB's records for doi:10.1021/jm00008a008 (Arris Pharmaceutical, 1995).

The nature of this assay: Tested for activity against 5-hydroxytryptamine 1A receptor from bovine hippocampus.
What is called Ki is a dissociation constant, usually derived from enzyme kinetics or from competition with a known ligand. Read a low Ki as a stronger hold on the target. In turn, `CCCN1CC[C@H]2c3c(cccc3OC)CC[C@@H]21` [(3aS,9bS)-9-Methoxy-3-propyl-2,3,3a,4,5,9b-hexahydro-1H-benzo[e]indole] yielded a Ki of 0.2 nM. Take `CCCN1[C@H](C)C[C@H]2c3c(O)cccc3CC[C@H]21` [(2R,3aR,9bS)-2-Methyl-3-propyl-2,3,3a,4,5,9b-hexahydro-1H-benzo[e]indol-9-ol]: the affinity, expressed as Ki, was 16 nM. `COc1cccc2c1C[C@H]1CCN(Cc3ccccc3)[C@H]1C2` [1-Benzyl-5-methoxy-2,3,3a,4,9,9a-hexahydro-1H-benzo[f]indole] showed a Ki of 1000 nM. Then `COc1cccc2c1CC[C@@H]1[C@H]2CCN1CC1CC1` [(3aR,9bS)-3-Cyclopropylmethyl-6-methoxy-2,3,3a,4,5,9b-hexahydro-1H-benzo[e]indole], with 1000 nM; and `COc1cccc2c1C[C@H]1CCN[C@H]1C2` [5-Methoxy-2,3,3a,4,9,9a-hexahydro-1H-benzo[f]indole], with 1000 nM.
